Results on two molecules are retold here after patent US9688639B2, “Solid forms of fungicidal pyrazoles” (E. I. DU PONT DE NEMOURS AND COMPANY, priority 2013, dated 2017).

What all share (assay type): physicochemical
The nature of data set [1]: Single crystal X-ray diffraction (calculated density). Conditions: from single crystal X-ray data collected at −100° C. How it is done: Suitable single crystals for polymorph Form A were grown from methanol evaporation. A colorless irregular plate with approximate dimensions of 0.520×0.300×0.060 mm was chosen for data collection and mounted on a polymer loop. Single crystal data was collected using a Bruker Platform goniometer with an Apex-II detector. The diffractometer was equipped with an incident beam monochromator using Mo-Kα radiation (λ=0.71073 Å) and a monocap collimator. The crystals were cooled in a −100° C. nitrogen flow during data collection.
The data were indexed and integrated using the Apex-II suite of programs including Sainplus and SADABS. The monoclinic cell parameters were determined to be: a=7.870(5) Å, b=28.037(16) Å, c=7.976(5) Å, beta=103.875(10) °, volume=1708.6(17) Å^3. The space group was determined to be P21/n. The molecular weight was 412.66 g/mol giving a calculated density of 1.604 g/cm^3, and μ(Mo)=2.59 mm^−1 for Z=4. Data reduction led to 3487 unique data from a two-theta range=5.46 to 52.92°. […]
The data were indexed and integrated using the Apex-II suite of programs including Sainplus and SADABS. The orthorhombic cell parameters were determined to be: a=14.285(3) Å, b=11.464(2) Å, c=20.010(3) Å, volume=3276.9(10) Å^3. The space group was determined to be Pbca. The molecular weight was 412.66 g/mol giving a calculated density of 1.673 g/cm^3, and μ(Mo)=2.70 mm^−1 for Z=8. […]

Data set [2] is described as follows: Differential Scanning Calorimetry. Conditions: DSC, heated at 2° C./min. How it is done:
Differential Scanning Calorimetry was used to study the crystalline phases of various samples of Compound 1. Data were obtained with a TA Instruments Q20-1220 Differential Scanning Calorimeter (V24.2 Build 107) using a standard cell (FC-03859). Samples were prepared by weighing between 4 and 5 mg of Compound 1 in a gold plated pan (Fauske and Associates, LLC, Burr Ridge, Ill.; part number DSC-M20). The corresponding lid was crimped tightly to the pan and the assembled crucible was inserted into the calorimeter. An empty crucible of the same type was prepared the same way and inserted as the reference. After the instrument was initialized, the sample was first equilibrated at 25° C. and then heated at 2° C./min to a maximum temperature of 225° C.

The nature of data set [3]: Temperature-dependent X-ray powder diffraction (stability with respect to temperature). The conditions noted are these: heated from 25° C. at 10° C. per minute; pXRD. How it is done:
To assess the stability of polymorph Form B of Compound 1 with respect to temperature, X-ray powder diffraction patterns were obtained while heating a sample of Form B from 25° C. to above its melting point. The measurement was conducted at the 5-IDD beam line at the Advanced Photon Source synchrotron located at the Argonne National Laboratory (Argonne, Ill., USA). A Differential-Scanning Calorimeter (DSC, Model DSC600, Linkam Scientific Instruments, Tadworth, U.K.) was mounted in vertical orientation to allow insertion of the DSC into the X-ray beam. The DSC was positioned in the beam line to accept a 100-200 μm square beam under high vacuum. The standard quartz window was replaced with polyimide film (Kapton®, 8 μm thickness, DuPont, Wilmington, Del., USA). An internal thermocouple was installed for temperature recording. A circular charged couple device (CCD) detector (Model Mar165, 165 mm diameter, Marresearch GmbH, Norderstedt, Germany) was used to detect the X-rays scattered from the sample. The detector was equipped with an aluminum cone that covered the detector and extended 100 mm from the face of the detector. This cone was equipped with a beam stop support and 5×3 mm lead beam stop. The cone was continuously purged with helium to minimize air scattering. […]

For the molecule `Cc1nn(C)c(Nc2c(F)cccc2Cl)c1-c1ccc(F)cc1Br` [polymorph Form A, 4-(2-bromo-4-fluorophenyl)-N-(2-chloro-6-fluorophenyl)-1,3-dimethyl-1H-pyrazol-5-amine], in data set [1], the calculated density was 1.604 g/mL.
Turning to `Cc1nn(C)c(Nc2c(F)cccc2Cl)c1-c1ccc(F)cc1Br` [polymorph Form B, 4-(2-bromo-4-fluorophenyl)-N-(2-chloro-6-fluorophenyl)-1,3-dimethyl-1H-pyrazol-5-amine], in data set [2], the “broad endotherm signal maximum (transition of Form B to Form A)” value is “about 148 °C”. In data set [2] (Form B to Form A), this molecule had a heat of transition of 12 J/g. In addition, the “temperature until which the form persists before it converts to polymorph Form A” value in data set [3] was determined as 138 °C. Besides, in data set [1], the calculated density is 1.673 g/mL.
